The series is described as follows: logP determination by retention times (calibration with alkan-2-ones). The note with it: logP, linear gradient 10% to 95% acetonitrile.
Where [1] appears, read: * HPLC reversed-phase C18, 40° C., mobile phase 0.1% aqueous formic acid and acetonitrile.
The mark [2] stands for this setting: ** HPLC reversed-phase C18, 43° C., mobile phase 0.1% aqueous phosphoric acid and acetonitrile.

The text below walks through data of patent US20090030024A1, “THIAZOLES AS FUNGICIDES” (priority 2005, published 2009).

Broadly, the chromatographic logP is a lipophilicity value derived from retention on a column. Lower therefore signals lower lipophilicity. In turn, `COCc1nc(C)c(-c2ccnc(Nc3ccc(F)c(C)c3)n2)s1` [Example 478, N-(4-fluoro-3-methylphenyl)-4-[2-(methoxymethyl)-4-methyl-1,3-thiazol-5-yl]pyrimidine-2-amine] came in with a chromatographic logP under setting [1] of 3.14.

Turning to `CSc1nc(C)c(-c2ccnc(Nc3ccc(F)c(C)c3)n2)s1` [Example 481, N-(4-fluoro-3-methylphenyl)-4-[4-methyl-2-(methylthio)-1,3-thiazol-5-yl]pyrimidine-2-amine], under setting [1], the chromatographic logP was 3.89. The same measure, in the same setting: then `COCC(C)Nc1nc(C)c(-c2ccnc(Nc3ccc(F)c(C)c3)n2)s1` (stereo not drawn) [Example 482, N-(4-fluoro-3-methylphenyl)-4-{2-[(2-methoxy-1-methylethyl)amino]-4-methyl-1,3-thiazol-5-yl}pyrimidine-2-amine], with 2.19; and `Cc1cc(Nc2nccc(-c3sc(NCC4CCCO4)nc3C)n2)ccc1F` (stereo not drawn) [Example 483, N-(4-fluoro-3-methylphenyl)-4-{4-methyl-2-[(tetrahydrofuran-2-ylmethyl)amino]-1,3-thiazol-5-yl}pyrimidine-2-amine], with 2.03; and `Cc1nc(C(C)C)sc1-c1ccnc(Nc2ccc(F)cc2)n1` [Example 485, N-(4-fluorophenyl)-4-(2-isopropyl-4-methyl-1,3-thiazol-5-yl)pyrimidine-2-amine], with 3.58. Still for that read-out and setting: with `COCc1nc(C)c(-c2ccnc(Nc3ccc(F)cc3)n2)s1` [Example 486, N-(4-fluorophenyl)-4-[2-(methoxymethyl)-4-methyl-1,3-thiazol-5-yl]pyrimidine-2-amine] the figure was 2.8; with `COCC(C)Nc1nc(C)c(-c2ccnc(Nc3ccc(F)cc3)n2)s1` (stereo not drawn) [Example 488, N-(4-fluorophenyl)-4-{2-[(2-methoxy-1-methylethyl)amino]-4-methyl-1,3-thiazol-5-yl}pyrimidine-2-amine], 2; with `Cc1nc(NCC2CCCO2)sc1-c1ccnc(Nc2ccc(F)cc2)n1` (stereo not drawn) [Example 489, N-(4-fluorophenyl)-4-{4-methyl-2-[(tetrahydrofuran-2-ylmethyl)amino]-1,3-thiazol-5-yl}pyrimidine-2-amine], 2.1.

With `CC(=O)Nc1nc(C)c(-c2ccnc(Nc3cccc(Cl)c3)n2)s1` [Example 515, N-(5-{2-[(3-chlorophenyl)amino]pyrimidin-4-yl}-4-methyl-1,3-thiazol-2-yl)acetamide], the chromatographic logP under setting [2] turned out to be 2.49. Compound `COc1ccc(Nc2nccc(-c3sc(SC)nc3C)n2)cn1` [Example 522, N-(6-methoxypyridin-3-yl)-4-[4-methyl-2-(methylthio)-1,3-thiazol-5-yl]pyrimidine-2-amine] showed a chromatographic logP under setting [1] of 2.67. On to `COc1ccc(Nc2nccc(-c3sc(NCC4CCCO4)nc3C)n2)cn1` (stereo not drawn) [Example 523, N-(6-methoxypyridin-3-yl)-4-{4-methyl-2-[(tetrahydrofuran-2-ylmethyl)amino]-1,3-thiazol-5-yl}pyrimidine-2-amine], for which, under setting [1], the chromatographic logP stood at 1.57.

Take `CSc1nc(C)c(-c2ccnc(Nc3ccc(N(C)C)cc3)n2)s1` [Example 524, N,N-dimethyl-N′-{4-[4-methyl-2-(methylthio)-1,3-thiazol-5-yl]pyrimidin-2-yl}benzene-1,4-diamine]: the chromatographic logP under setting [1] worked out at 1.75. Same read-out and setting: then `Cc1nc(C2CC2)sc1-c1ccnc(Nc2cccc(CN)c2)n1` [Example 537, N-[3-(aminomethyl)phenyl]-4-(2-cyclopropyl-4-methyl-1,3-thiazol-5-yl)pyrimidine-2-amine], with 1.45. Same read-out and setting: then `COCc1nc(C)c(-c2ccnc(Nc3ccc(NC(C)=O)cc3)n2)s1` [Example 544, N-[4-({4-[2-(methoxymethyl)-4-methyl-1,3-thiazol-5-yl]pyrimidin-2-yl}amino)phenyl]acetamide], with 1.8. Regarding `Cc1nc(C)c(-c2ccnc(Nc3cccc(N(C)C)c3)n2)s1` [Example 551, N′-[4-(2,4-dimethyl-1,3-thiazol-5-yl)pyrimidin-2-yl]-N,N-dimethylbenzene-1,3-diamine], the chromatographic logP under setting [1] was 1.75. This chromatographic logP and that of the compound before are within 0.2 log units of each other.

With `Cc1nc(C)c(-c2ccnc(Nc3ccc(N(C)C)cc3)n2)s1` [Example 552, N′-[4-(2,4-dimethyl-1,3-thiazol-5-yl)pyrimidin-2-yl]-N,N-dimethylbenzene-1,4-diamine], the chromatographic logP under setting [1] came out at 1.41. Same read-out and setting: then `Cc1nc(C2CCCCC2)sc1-c1ccnc(Nc2ccc(N(C)C)cc2)n1` [Example 553, N′-[4-(2-cyclohexyl-4-methyl-1,3-thiazol-5-yl)pyrimidin-2-yl]-N,N-dimethylbenzene-1,4-diamine], with 2.38.

As for `Cc1nc(C2CC2)sc1-c1ccnc(Nc2cccc(N(C)C)c2)n1` [Example 554, N′-[4-(2-cyclopropyl-4-methyl-1,3-thiazol-5-yl)pyrimidin-2-yl]-N,N-dimethylbenzene-1,3-diamine], the chromatographic logP under setting [1] was 2.19.

Under setting [1], `Cc1nc(C2CC2)sc1-c1ccnc(Nc2ccc(N(C)C)cc2)n1` [Example 555, N′-[4-(2-cyclopropyl-4-methyl-1,3-thiazol-5-yl)pyrimidin-2-yl]-N,N-dimethylbenzene-1,4-diamine] gave a chromatographic logP of 1.63. The same measure, in the same setting: then `CC(=O)Nc1nc(C)c(-c2ccnc(Nc3ccccc3)n2)s1` [Example 560, N-[5-(2-anilinopyrimidin-4-yl)-4-methyl-1,3-thiazol-2-yl]acetamide], with 2.09; and `COCC(C)Nc1nc(C)c(-c2ccnc(Nc3cccc(NC(C)=O)c3)n2)s1` (stereo not drawn) [Example 569, N-{3-[(4-{2-[(2-methoxy-1-methylethyl)amino]-4-methyl-1,3-thiazol-5-yl}pyrimidin-2-yl)amino]phenyl}acetamide], with 1.47. Same read-out and setting: then `COCC(C)Nc1nc(C)c(-c2ccnc(Nc3cccc(NS(C)(=O)=O)c3)n2)s1` (stereo not drawn) [Example 570, N-{3-[(4-{2-[(2-methoxy-1-methylethyl)amino]-4-methyl-1,3-thiazol-5-yl}pyrimidin-2-yl)amino]phenyl}methanesulphonamide], with 1.57; and `COCC(C)Nc1nc(C)c(-c2ccnc(Nc3ccc(NC(C)=O)cc3)n2)s1` (stereo not drawn) [Example 578, N-{4-[(4-{2-[(2-methoxy-1-methylethyl)amino]-4-methyl-1,3-thiazol-5-yl}pyrimidin-2-yl)amino]phenyl}acetamide], with 1.43; and `CC(=O)Nc1ccc(Nc2nccc(-c3sc(NCC4CCCO4)nc3C)n2)cc1` (stereo not drawn) [Example 580, N-{4-[(4-{4-methyl-2-[(tetrahydrofuran-2-ylmethyl)amino]-1,3-thiazol-5-yl}pyrimidin-2-yl)amino]phenyl}acetamide], with 1.39. The same measure, in the same setting: then `Cc1nc(C)c(-c2ccnc(Nc3ccc4c(c3)OCO4)n2)s1` [Example 616, N-1,3-benzodioxol-5-yl-4-(2,4-dimethyl-1,3-thiazol-5-yl)pyrimidine-2-amine], with 2.44. For `Cc1nc(C2CC2)sc1-c1ccnc(Nc2ccc3c(c2)OCO3)n1` [Example 617, N-1,3-benzodioxol-5-yl-4-(2-cyclopropyl-4-methyl-1,3-thiazol-5-yl)pyrimidine-2-amine], the chromatographic logP under setting [1] is 2.96. The same measure, in the same setting: then `CCc1nc(C)c(-c2ccnc(Nc3ccc4c(c3)OCO4)n2)s1` [Example 618, N-1,3-benzodioxol-5-yl-4-(2-ethyl-4-methyl-1,3-thiazol-5-yl)pyrimidine-2-amine], with 2.77; and `Cc1nc(C(C)C)sc1-c1ccnc(Nc2ccc3c(c2)OCO3)n1` [Example 619, N-1,3-benzodioxol-5-yl-4-(2-isopropyl-4-methyl-1,3-thiazol-5-yl)pyrimidine-2-amine], with 3.25; and `COCc1nc(C)c(-c2ccnc(Nc3ccc4c(c3)OCO4)n2)s1` [Example 620, N-1,3-benzodioxol-5-yl-4-[2-(methoxymethyl)-4-methyl-1,3-thiazol-5-yl]pyrimidine-2-amine], with 2.47. The same measure, in the same setting: then `CC(=O)N(Cc1cccc(Nc2nccc(-c3sc(C4CC4)nc3C)n2)c1)C(C)=O` [Example 621, N-acetyl-N-(3-{[4-(2-cyclopropyl-4-methyl-1,3-thiazol-5-yl)pyrimidin-2-yl]amino}benzyl)acetamide], with 1.87; and `CC(=O)N(Cc1cccc(N(C(C)=O)c2nccc(-c3sc(C4CC4)nc3C)n2)c1)C(C)=O` [Example 622, N-acetyl-N-(3-{acetyl[4-(2-cyclopropyl-4-methyl-1,3-thiazol-5-yl)pyrimidin-2-yl]amino}benzyl)acetamide], with 2.39. In turn, `Cc1nc(C2CC2)sc1-c1ccnc(Nc2cccc(CNC(=O)OC(C)(C)C)c2)n1` [Example 624, tert-butyl-(3-{[4-(2-cyclopropyl-4-methyl-1,3-thiazol-5-yl)pyrimidin-2-yl]amino}benzyl)carbamate] showed a chromatographic logP under setting [1] of 2.87. As for `Cc1nc(C)c(-c2ccnc(Nc3ccc(CNC(=O)OC(C)(C)C)cc3)n2)s1` [Example 625, tert-butyl-(4-{[4-(2,4-dimethyl-1,3-thiazol-5-yl)pyrimidin-2-yl]amino}benzyl)carbamate], the chromatographic logP under setting [2] came to 2.7. As to `CCc1nc(C)c(-c2ccnc(Nc3ccc(CNC(=O)OC(C)(C)C)cc3)n2)s1` [Example 632, tert-butyl-(4-{[4-(2-ethyl-4-methyl-1,3-thiazol-5-yl)pyrimidin-2-yl]amino}benzyl)carbamate], the chromatographic logP under setting [1] was found to be 3.26. `Cc1nc(C(C)C)sc1-c1ccnc(Nc2ccc(CNC(=O)OC(C)(C)C)cc2)n1` [Example 633, tert-butyl-(4-{[4-(2-isopropyl-4-methyl-1,3-thiazol-5-yl)pyrimidin-2-yl]amino}benzyl)carbamate] gave a chromatographic logP under setting [1] of 3.68. In turn, `COCc1nc(C)c(-c2ccnc(Nc3cccc(CNC(=O)OC(C)(C)C)c3)n2)s1` [Example 639, tert-butyl-[3-({4-[2-(methoxymethyl)-4-methyl-1,3-thiazol-5-yl]pyrimidin-2-yl}amino)benzyl]carbamate] yielded a chromatographic logP under setting [1] of 2.94.
